Source: patent US20230104936A1, “TRPML MODULATORS” (Casma Therapeutics, Inc., priority 2019, published 2023)
Counter-ions that a name gives are not always drawn.

What follows are molecules tested on TFEB (assay: TFEB nuclear translocation assay, HeLa wt cells). Details: Homo sapiens, HeLa, 2 h, 2 hrs compound treatment, Table 1 does not say HeLa wt or TRPML1 KO.
Type: cell-based
Procedure, shortened: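 Using 20× epifluorescence of fixed, anti-TFEB-stained HeLa wt cells treated 2 hrs with compound, nuclear versus perinuclear ring intensity was quantified over four fields per well, yielding AC50 values.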

| Compound | AC50 [µM] |
| --- | --- |
| O=S(=O)(Nc1cc(Cl)ccc1N1CCC(c2c(F)cccc2F)CC1)c1ccc2c(c1)CCC2 [Compound A-292, N-{5-chloro-2-[4-(2,6-difluorophenyl)piperidin-1-yl]phenyl}-2,3-dihydro-1H-indene-5-sulfonamide] | ≤ 2 |
| CN1CCC2(CCN(c3ccccc3NS(=O)(=O)c3ccc(S(=O)(=O)N(C)C)cc3)CC2)C1 [Compound A-293, N1,N1-dimethyl-N4-(2-{2-methyl-2,8-diazaspiro[4.5]decan-8-yl}phenyl)benzene-1,4-disulfonamide] | ≥ 10 |
| CN(C)S(=O)(=O)c1ccc(S(=O)(=O)N2C(=O)N(C3CCN(c4ccc(Cl)cc4F)CC3)C(=O)C2(C)C)cc1 [Compound A-294, 4-({3-[1-(4-chloro-2-fluorophenyl)piperidin-4-yl]-5,5-dimethyl-2,4-dioxoimidazolidin-1-yl}sulfonyl)-N,N-dimethylbenzene-1-sulfonamide] | ≥ 10 |
| CN(C)C1CC2(CCN(c3ccccc3NS(=O)(=O)c3ccc(S(=O)(=O)N(C)C)cc3)CC2)c2ccccc21 (stereo not drawn) [Compound A-295, N4-{2-[3-(dimethylamino)-2,3-dihydrospiro[indene-1,4′-piperidin]-1′-yl]phenyl}-N1,N1-dimethylbenzene-1,4-disulfonamide] | 2.01 to 8 |
| CN(C)S(=O)(=O)c1ccc(S(=O)(=O)Nc2ccccc2N2CC3(CN(c4ccc(Cl)cc4F)C3)C2)cc1 [Compound A-296, N1-(2-(6-(4-chloro-2-fluorophenyl)-2,6-diazaspiro[3.3]heptan-2-yl)phenyl)-N4,N4-dimethylbenzene-1,4-disulfonamide] | 2.01 to 8 |
| O=C1COCCN1c1c(Cl)cccc1NS(=O)(=O)c1ccc2c(c1)CCC2 [Compound A-297, N-[3-chloro-2-(3-oxomorpholin-4-yl)phenyl]-2,3-dihydro-1H-indene-5-sulfonamide] | ≥ 10 |
| O=S(=O)(Nc1cccc(Cl)c1N1CCC(c2c(F)cccc2F)CC1)c1ccc2c(c1)CCC2 [Compound A-298, N-{3-chloro-2-[4-(2,6-difluorophenyl)piperidin-1-yl]phenyl}-2,3-dihydro-1H-indene-5-sulfonamide] | ≤ 2 |
| CS(=O)(=O)c1ccc(S(=O)(=O)Nc2cc(Cl)ccc2N2CCOCC2)cc1 [Compound A-299, N-[5-chloro-2-(morpholin-4-yl)phenyl]-4-methanesulfonylbenzene-1-sulfonamide] | ≥ 10 |
| CCN1CCN(c2c(Cl)cccc2NS(=O)(=O)c2ccc3c(c2)CCC3)CC1 [Compound A-300, N-[3-chloro-2-(4-ethylpiperazin-1-yl)phenyl]-2,3-dihydro-1H-indene-5-sulfonamide hydrochloride] | 2.01 to 8 |
| CN1C(=O)c2cc(F)ccc2C12CCN(c1ccccc1NS(=O)(=O)c1ccc(S(=O)(=O)N(C)C)cc1)CC2 [Compound A-301, N4-(2-{5-fluoro-2-methyl-3-oxo-2,3-dihydrospiro[isoindole-1,4′-piperidin]-1′-yl}phenyl)-N1,N1-dimethylbenzene-1,4-disulfonamide] | ≤ 2 |
| CN1CC(c2ccccc2)C2(CCN(c3ccccc3NS(=O)(=O)c3ccc(S(=O)(=O)N(C)C)cc3)CC2)C1 (stereo not drawn) [Compound A-302, N1,N1-dimethyl-N4-(2-{2-methyl-4-phenyl-2,8-diazaspiro[4.5]decan-8-yl}phenyl)benzene-1,4-disulfonamide] | ≥ 10 |
| CN(C)S(=O)(=O)c1ccc(S(=O)(=O)Nc2ccccc2N2CCC3(CC2)CN(Cc2ccccc2)c2cc(F)ccc23)cc1 [Compound A-304, N4-(2-{1-benzyl-6-fluoro-1,2-dihydrospiro[indole-3,4′-piperidin]-1′-yl}phenyl)-N1,N1-dimethylbenzene-1,4-disulfonamide] | ≤ 2 |
| CN1CC2(CCC(c3ccccc3NS(=O)(=O)c3ccc(S(=O)(=O)N(C)C)cc3)CC2)c2ccc(F)cc21 (stereo not drawn) [Compound A-305, N1-(2-(6′-fluoro-1′-methylspiro[cyclohexane-1,3′-indolin]-4-yl)phenyl)-N4,N4-dimethylbenzene-1,4-disulfonamide] | 2.01 to 8 |
| Cc1nn(S(=O)(=O)c2ccc(S(=O)(=O)N(C)C)cc2)cc1N1CCN(c2ccc(Cl)cc2F)CC1=O [Compound A-306, 4-({4-[4-(4-chloro-2-fluorophenyl)-2-oxopiperazin-1-yl]-3-methyl-1H-pyrazol-1-yl}sulfonyl)-N,N-dimethylbenzene-1-sulfonamide] | ≥ 10 |
| CN1CC2(CCN(c3ccccc3N(C)S(=O)(=O)c3ccc(S(C)(=O)=O)cc3)CC2)c2ccc(F)cc21 [Compound A-307, N-(2-{6-fluoro-1-methyl-1,2-dihydrospiro[indole-3,4′-piperidin]-1′-yl}phenyl)-4-methanesulfonyl-N-methylbenzene-1-sulfonamide] | 2.01 to 8 |
| CCOC(=O)N1CCN(c2ccccc2NS(=O)(=O)c2ccc(S(=O)(=O)N(C)C)cc2)CC1 [Compound A-308, ethyl 4-{2-[4-(dimethylsulfamoyl)benzenesulfonamido]phenyl}piperazine-1-carboxylate] | 2.01 to 8 |
| COC(=O)N1CCN(c2ccccc2NS(=O)(=O)c2ccc(S(=O)(=O)N(C)C)cc2)CC1 [Compound A-309, methyl 4-{2-[4-(dimethylsulfamoyl)benzenesulfonamido]phenyl}piperazine-1-carboxylate] | 2.01 to 8 |
| CN1Cc2cc(F)ccc2C12CCN(c1ccccc1NS(=O)(=O)c1ccc(S(=O)(=O)N(C)C)cc1)CC2 [Compound A-310, N4-(2-{5-fluoro-2-methyl-2,3-dihydrospiro[isoindole-1,4′-piperidin]-1′-yl}phenyl)-N1,N1-dimethylbenzene-1,4-disulfonamide; formic acid] | ≤ 2 |
| CN(C)S(=O)(=O)c1ccc(S(=O)(=O)Nc2cccc(Cl)c2N2CCOCC2)cc1 [Compound A-311, N4-[3-chloro-2-(morpholin-4-yl)phenyl]-N1,N1-dimethylbenzene-1,4-disulfonamide] | 2.01 to 8 |
| CN(C)S(=O)(=O)c1ccc(S(=O)(=O)Cc2cc(Cl)ccc2N2CCOCC2)cc1 [Compound A-312, 4-{[5-chloro-2-(morpholin-4-yl)phenyl]methanesulfonyl}-N,N-dimethylbenzene-1-sulfonamide] | ≥ 10 |
| O=S(=O)(Nc1cc(Cl)ccc1N1CCC(c2ccc(Cl)cc2F)CC1)c1ccc2c(c1)CCC2 [Compound A-313, N-{5-chloro-2-[4-(4-chloro-2-fluorophenyl)piperidin-1-yl]phenyl}-2,3-dihydro-1H-indene-5-sulfonamide] | ≤ 2 |
| CCN1CCN(c2ccc(Cl)cc2NS(=O)(=O)c2ccc3c(c2)CCC3)C(=O)C1 [Compound A-314, N-[5-chloro-2-(4-ethyl-2-oxopiperazin-1-yl)phenyl]-2,3-dihydro-1H-indene-5-sulfonamide] | ≥ 10 |
| CCN1CCN(c2c(Cl)cccc2NS(=O)(=O)c2ccc3c(c2)CCC3)C(=O)C1 [Compound A-315, N-[3-chloro-2-(4-ethyl-2-oxopiperazin-1-yl)phenyl]-2,3-dihydro-1H-indene-5-sulfonamide] | ≥ 10 |
| O=S(=O)(Nc1cc(Cl)ccc1N1CCCC2(CCCCO2)C1)c1ccc2c(c1)CCC2 (stereo not drawn) [Compound A-316, N-(5-chloro-2-{1-oxa-8-azaspiro[5.5]undecan-8-yl}phenyl)-2,3-dihydro-1H-indene-5-sulfonamide] | 2.01 to 8 |
